Source: publication PMC10374545, “A small molecule inhibitor of PTP1B and PTPN2 enhances T cell anti-tumor immunity” (Nature Communications, 2023)
“And” between values parts separate entries of the source, which are not always exact repeats. Identical values can stand only once.

What was measured:
PTP1B = target: T1, PTP1B (Homo sapiens, UniProt P18031); experiment: Jump-dilution assay; type: biochemical; details: 30 min preincubation, 50-fold dilution into 100 µM DiFMUP
T1 construct: PTP1B, residues 1-321; made in house; host or cells: E. coli BL21(DE3)
T1 sequence (P18031 1-321): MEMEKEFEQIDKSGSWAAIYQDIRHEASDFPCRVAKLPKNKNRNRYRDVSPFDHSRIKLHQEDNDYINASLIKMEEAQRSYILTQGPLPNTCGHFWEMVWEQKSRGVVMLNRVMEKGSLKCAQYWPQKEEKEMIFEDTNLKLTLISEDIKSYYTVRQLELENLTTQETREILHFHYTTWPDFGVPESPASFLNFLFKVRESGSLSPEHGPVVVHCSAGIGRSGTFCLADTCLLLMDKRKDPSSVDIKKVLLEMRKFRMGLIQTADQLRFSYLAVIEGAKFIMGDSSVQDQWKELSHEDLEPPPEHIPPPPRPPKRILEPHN
Experimental: The reaction was allowed to proceed for 10 min under room temperature and was quenched by addition of a 160 µM solution of bpV(Phen). The fluorescence signal was measured using a CLARIOstar Plus Microplate Spectrophotometer (BMG Labtech) using excitation and emission wavelengths of 340 nm and 450 nm, respectively. Data were fitted using Prism GraphPad 9.2.0.

AT3-OVA mammary tumors = experiment: Tumor-infiltrating lymphocytes in AT3-OVA tumors (flow cytometry); type: in vivo, mouse; design: GRZMB, single mice / GRZMB, individual mice: unit not given here
Experimental: Single-cell suspensions from spleens and lymph nodes were obtained as described previously. For the detection of intracellular cytokines and granzyme B, T cells were fixed and permeabilized with the BD Cytofix/Cytoperm kit according to the manufacturer’s instructions. Briefly, T cells were first surface stained with fluorophore-conjugated antibodies and then fixed followed by permeabilization on ice for 20 min. Fixed and permeabilized cells were stained for IFN-γ, TNF, and granzyme B for 45 min at room temperature. For the detection of intracellular FoxP3 the Foxp3/Transcription Factor Staining Buffer Set (eBioscience) was used according to the manufacturer’s instructions. Briefly, cells were fixed and permeabilized for 1 h on ice followed by intracellular staining at room temperature for 45 min. For the detection of serum cytokines, the BD CBA Mouse Inflammation Kit™ was used according to the manufacturers’ instructions.
Cells (1 × 10^6/10 µl) were stained with the specified antibodies on ice for 30 min in D-PBS supplemented with 2% FBS in the dark and analyzed using a Fortessa or Symphony A3 (BD Biosciences). Data was acquired using BD FACS DIVA Software v8.0.1 and analyzed using FlowJo10 (Tree Star Inc.) software. Lymphocytes were gated for eYFP^+ cells to discriminate between PTPN2 sufficient and PTPN2 negative cells after poly(I:C)-induced PTPN2-deletion in Mx1-Cre;Ptpn2^fl/fl mice. For cell quantification, known numbers of Flow-Count Fluorospheres (Beckman Coulter) were added to samples before analysis. Dead cells were excluded with propidium iodide (1 μg/ml; Sigma-Aldrich). Paraformaldehyde fixed dead cells were excluded with the LIVE/DEAD™ Fixable Near-IR Dead Cell Stain Kit (Thermo Fisher Scientific).
(§1) Tumor-bearing mice were sacrificed and tumors were excised and digested at 37 °C for 30 min using a cocktail of 1 mg/ml collagenase type IV (Worthington Biochemicals) and 0.02 mg/ml DNase I (Sigma-Aldrich) in DMEM supplemented with 2% (v/v) FBS. Cells were passed through a 70 μm cell strainer (BD Biosciences) twice and processed for flow cytometry. For assessing T cell activation, cells were surface stained with fluorophore-conjugated antibodies to CD62L, CD44, PD-1, and TIM-3. For the assessment of NK cells, B cells, myeloid-derived suppressor cells (MDSCs), dendritic cells (DCs), and tumor-associated macrophages, cells were surface stained with fluorophore-conjugated antibodies to NK1.1, TCRβ, CD19, CD11b, CD11c, F4/80, Ly6C and Ly6G. For the detection of intracellular cytokines TNF and IFNγ, T cells were stimulated with PMA (20 ng/ml; Sigma-Aldrich) and ionomycin (1 μg/ml; Sigma-Aldrich) in the presence of GolgiPlug™ and GolgiStop™ (BD Biosciences) for 4 h at 37 °C in complete T cell medium. For the intracellular detection of granzyme B, cells were processed untreated without the addition of BD GolgiPlug™ and BD GolgiStop™.

MC38 colon tumors = experiment: Tumor-infiltrating lymphocytes in MC38 tumors; type: in vivo, mouse; design: CD4 EM, individual mice / CD8 EM, individual mice / GRZMB, individual mice / B cells, individual mice / NK cells, individual mice / Tregs, individual mice / MDSCs, individual mice: unit not given here
Experimental: as §1

[1] = system: p-STAT-1 and CD3 in AT3-OVA tumors; experiment: Immunohistochemistry for p-STAT-1 (Y701) and CD3 in AT3-OVA tumors; type: in vivo, mouse; details: 10 mg/kg i.v.
Experimental: For the immunohistochemistry analysis of mammary tumor samples, samples were dissected and fixed in 10% formalin. After fixation, the tissues were embedded in paraffin and sectioned onto microscopic glass slides at 4 μm thickness per section. After deparaffinization and rehydration, the slides were subjected to antigen retrieval in Tris/EDTA buffer (pH 8.0) at 120 °C for 10 min and then cooled down to room temperature. The slides were blocked with 5% (v/v) normal goat serum (NGS) containing 0.1% (v/v) TritonX-100 in PBS for 1 h at room temperature and then incubated with primary antibody p-STAT-1 (Tyr701) (1:500; Cell Signaling Technology), or CD3ε (1:1000; Dako) at room temperature for 1 h. Slides were then washed with PBS containing 0.05% (w/v) Tween-20 and visualized using a rabbit IgG VECTORSTAIN ABC Elite and DAB (3,3′‐diaminobenzidine) Peroxidase Substrate Kit (Vector Laboratories, UK) and counterstained with haematoxylin. Slides were imaged on an Olympus CX43 microscope (Olympus, Tokyo, Japan).

[2] = C57BL/6, CMP-182 10 mg, n=8, Figure 5C
[3] = C57BL/6, CMP-182 10 mg, n=8, Figure 5D, in % (unit assumed)
[4] = C57BL/6, CMP-182 10 mg, n=8, Figure 5E
[5] = tumor-infiltrating CD8+ T cells, 10 mg/kg i.v., Fig. 3D raw data, listed as CMP-182, 10 mg/kg
[6] = MC38 tumours, Figure 4B, listed as CMP-182
[7] = MC38 tumours, Figure 4C, listed as CMP-182

`CC(C)(O)CCOc1ccc2cc(O)c(N3CC(=O)NS3(=O)=O)c(F)c2c1` [Compound 182, 5-(1-Fluoro-3-hydroxy-7-(3-hydroxy-3-methylbutoxy)naphthalen-2-yl)−1,2,5-thiadiazolidin-3-one 1,1-dioxide] was tested, and the reversibility of inhibition (PTP1B) was “reversible”, the “TILs in AT3-OVA tumors” value (AT3-OVA mammary tumors; 10 mg/kg i.v.) was “increased TILs” and the “accumulation of NK cells and B cells in AT3-OVA tumors” value (AT3-OVA mammary tumors; 10 mg/kg i.v.) was “increased the accumulation”. The “accumulation of Tregs and MDSCs in AT3-OVA tumors” value (AT3-OVA mammary tumors; 10 mg/kg i.v.) was “promoted the accumulation”, the “MDSCs, individual mice” value (AT3-OVA mammary tumors; C57BL/6, CMP-182 10 mg, n=7, Figure 5E) was 48747.9 and 7096.22 and 17089.1 and 45092.3 and 47664.4 and 17646.1 and 31607.3 and the “CD4 EM, individual mice” value (AT3-OVA mammary tumors; [2]) was 134557 and 47922.8 and 133424 and 44428.9 and 44587.5 and 55436.2 and 44822.8 and 60817.2. The “CD8 EM, individual mice” value (AT3-OVA mammary tumors; [2]) was 845401 and 186403 and 749030 and 169324 and 169003 and 192622 and 192657 and 178436, the “GRZMB, individual mice” value (AT3-OVA mammary tumors; C57BL/6, CMP-182 10 mg, n=8, Figure 5D) was 25.6 and 28.7 and 25.8 and 29.2 and 51.4 and 33.2 and 36 and 28.4 and the “IFNg TNF, individual mice” value (AT3-OVA mammary tumors; [3]) was 24.8 and 30.6 and 32 and 36.2 and 36.6 and 36.4 and 24 and 30.7. The “PD-1 TIM-3, individual mice” value (AT3-OVA mammary tumors; [3]) was 77.9 and 62.8 and 78.4 and 65.6 and 64.1 and 65.4 and 72.7 and 54.7, the “B cells, individual mice” value (AT3-OVA mammary tumors; [4]) was 170944 and 179918 and 255526 and 193357 and 175857 and 145133 and 135399 and 202633 and the “NK cells, individual mice” value (AT3-OVA mammary tumors; [4]) was 58558.9 and 29752.3 and 40599.7 and 35764.2 and 59533.6 and 52754.4 and 30362.6 and 33110.9. For the same compound, the “Tregs, individual mice” value (AT3-OVA mammary tumors; [4]) was 74115.4 and 20349.3 and 83872.7 and 21555.9 and 26849.8 and 29117.6 and 19831.6 and 35834.4, the “CD4 CM TILS (median)” value (AT3-OVA mammary tumors; Figure 3B, column B, n=8) was 11958, n=8 and the “CD4 EM TILS (median)” value (AT3-OVA mammary tumors; Figure 3B, column B, n=8) was 57270, n=8. For the same compound, the “CD8 CM TILS (median)” value (AT3-OVA mammary tumors; Figure 3B, column B, n=8) was 16228, n=8, the “CD8 EM TILS (median)” value (AT3-OVA mammary tumors; Figure 3B, column B, n=8) was 275442, n=8 and the “B cells TILS (median)” value (AT3-OVA mammary tumors; Figure 3C, column B, n=8) was 364105, n=8. The “MDSCs TILS (median)” value (AT3-OVA mammary tumors; Figure 3C, column B, n=8) was 8604, n=8, the “Nk cells TILS (median)” value (AT3-OVA mammary tumors; Figure 3C, column B, n=8) was 52917, n=8 and the “Tregs TILS (median)” value (AT3-OVA mammary tumors; Figure 3C, column B, n=8) was 35282, n=8. The “GRZB TILS (median)” value (AT3-OVA mammary tumors; Figure 3D, column B, n=8) was 35.20, n=8, the “IFNg TNF TILS (median)” value (AT3-OVA mammary tumors; Figure 3D, column B, n=8) was 31.60, n=8 and the “PD-1 Lag-3 TILS (median)” value (AT3-OVA mammary tumors; Figure 3D, column B, n=8) was 35.10, n=8. For the same compound, the “PD-1 TIM-3 TILS (median)” value (AT3-OVA mammary tumors; Figure 3D, column B, n=8) was 50.75, n=8, the “GRZMB, single mice” value (AT3-OVA mammary tumors; [5]) was 38.7 and 39 and 35.1 and 25.9 and 27.7 and 35.3 and 28.6 and 36.2 and the “PD-1 LAG-3, single mice” value (AT3-OVA mammary tumors; [5]) was 39.6 and 36.2 and 34 and 27 and 25.2 and 33.5 and 41.6. For the same compound, the “PD-1 TIM-3, single mice” value (AT3-OVA mammary tumors; tumor-infiltrating CD8+ T cells, 10 mg/kg i.v., Fig. 3D raw data, listed as CMP-182, 10 mg/kg, in % (unit assumed)) was 64.6 and 50.1 and 56.3 and 51.4 and 49.7 and 42.6 and 48.5 and 63, the “TILs in MC38 tumors” value (MC38 colon tumors; 10 mg/kg i.v.) was “increased TILs” and the “CD4 EM, individual mice” value (MC38 colon tumors; [6]) was 7887.52 and 30840.7 and 10292.6 and 20601 and 9909.06. For the same compound, the “CD8 EM, individual mice” value (MC38 colon tumors; [6]) was 15044.4 and 39708.3 and 17222.4 and 39521.3 and 13554.1, the “GRZMB, individual mice” value (MC38 colon tumors; [6]) was 88.5 and 78.2 and 82.1 and 82.7 and 77.1 and the “PD-1 TIM-3, individual mice” value (MC38 colon tumors; [6]) was 71 and 72.3 and 61.5 and 79.9 and 67.1. For the same compound, the “B cells, individual mice” value (MC38 colon tumors; [7]) was 1614.8 and 2825.59 and 875.433 and 4615.54 and 1539.85, the “MDSCs, individual mice” value (MC38 colon tumors; [7]) was 35014.8 and 125819 and 42394.5 and 66581.6 and 40317.8 and the “NK cells, individual mice” value (MC38 colon tumors; [7]) was 12195.1 and 31635.4 and 14041.5 and 15109.2 and 9658.51. The “Tregs, individual mice” value (MC38 colon tumors; [7]) was 1910.56 and 8524.67 and 3417.74 and 9313.01 and 2270.7, the “p-STAT-1 signaling and T cell infiltrates in AT3-OVA tumors of Lck-Cre;Ptpn2fl/fl mice” value [1] was “did not further increase” and the “p-STAT-1 staining and abundance of CD3ε+ T cells in AT3-OVA tumors” value ([1]; C57BL/6 mice) was “increased”.
